The experiment addresses Angiotensin-converting enzyme (Homo sapiens, UniProt P12821+Q9BYF1). Put plainly: Inhibitory activity against angiotensin converting enzyme. It is filed as protein assay.

SMILES strings stand for the structures. Peptide text beside a SMILES is read from it. * marks the point of attachment. Bz = O=C(c1ccccc1)*

For `O=C(N[C@@H](Cc1ccccc1)C(=O)NCC(=O)N1CCC[C@H]1C(=O)O)c1ccccc1` (Bz-Phe-Gly-Pro-OH), the IC50 turned out to be 9.4 µM.

Values taken from ChEMBL document CHEMBL1151077, “Peptide mimics of glycylproline as inhibitors of prolidase” (Bioorg Med Chem Lett, 1995).
